Results reported in ChEMBL document CHEMBL1146569, “The pterocellins, novel bioactive alkaloids from the marine bryozoan Pterocella vesiculosa” (J Nat Prod, 2003).

Tests used:
Assay type in all cases: functional
COLO 205 = experiment: Growth inhibition of human COLO205 cells
LOX IMVI = experiment: Growth inhibition of human LOXIMVI cells
Escherichia coli = experiment: Antimicrobial activity against Escherichia coli assessed per disk
MOLT-4 = experiment: Growth inhibition of human MOLT4 cells
Amorphotheca resinae = experiment: Antimicrobial activity against Cladosporium resinae assessed per disk
DU-145 = experiment: Growth inhibition of human DU145 cells
BT-549 = experiment: Growth inhibition of human BT549 cells
SNB-19 = experiment: Growth inhibition of human SNB19 cells
TK-10 = experiment: Growth inhibition of human TK10 cells
MDA-MB-231 = experiment: Growth inhibition of human MDA-MB-231 cells
M14 = experiment: Growth inhibition of human M14 cells
EKVX = experiment: Growth inhibition of human EKVX cells
A549 = experiment: Growth inhibition of human A549 cells
U-251 = experiment: Growth inhibition of human U251 cells
SN12C = experiment: Growth inhibition of human SN12C cells
SNB-75 = experiment: Growth inhibition of human SNB75 cells
NCI-H23 = experiment: Growth inhibition of human NCI-H23 cells
NCI-H522 = experiment: Growth inhibition of human NCI-H522 cells
Candida albicans = experiment: Antimicrobial activity against Candida albicans assessed per disk
SK-OV-3 = experiment: Growth inhibition of human SKOV3 cells
ACHN = experiment: Growth inhibition of human ACHN cells
OVCAR-5 = experiment: Growth inhibition of human OVCAR5 cells
UACC-62 = experiment: Growth inhibition of human UACC62 cells
OVCAR-4 = experiment: Growth inhibition of human OVCAR4 cells
SK-MEL-2 = experiment: Growth inhibition of human SK-MEL-2 cells
NCI/ADR-RES = experiment: Growth inhibition of human NCI/ADR-RES cells
786-0 = experiment: Growth inhibition of human 786-0 cells
HL-60(TB) = experiment: Growth inhibition of human HL-60(TB) cells
HT-29 = experiment: Growth inhibition of human HT-29 cells
[1] = tested on: Trichophyton mentagrophytes; experiment: Antimicrobial activity against Trichophyton mentagrophytes assessed per disk
HOP-92 = experiment: Growth inhibition of human HOP92 cells
MCF7 = experiment: Growth inhibition of human MCF7 cells
A498 = experiment: Growth inhibition of human A498 cells
T47D = experiment: Growth inhibition of human T47D cells
RXF 393 = experiment: Growth inhibition of human RXF393 cells
HCT-116 = experiment: Growth inhibition of human HCT116 cells
OVCAR-8 = experiment: Growth inhibition of human OVCAR8 cells
MDA-N = experiment: Growth inhibition of human MDA-N cells
UACC-257 = experiment: Growth inhibition of human UACC257 cells
HCC 2998 = experiment: Growth inhibition of human HCC2998 cells
KM12 = experiment: Growth inhibition of human KM12 cells
Pseudomonas aeruginosa = experiment: Antimicrobial activity against Pseudomonas aeruginosa assessed per disk
SF-539 = experiment: Growth inhibition of human SF539 cells
CCRF-CEM = experiment: Growth inhibition of human CCRF-CEM cells
HOP-62 = experiment: Growth inhibition of human HOP62 cells
UO-31 = experiment: Growth inhibition of human UO31 cells
[2] = read-out: LC50 (the source's name)

## COc1cn2c(cc1=O)C(=O)c1ccnc(CC(C)C)c1-2 [PTEROCELLIN A]
COLO 205
  GI50: 1600 nM
  TGI: 3.7 µM
COLO 205; [2]
  CC50: 8.4 µM
LOX IMVI
  GI50: 1300 nM
  LC50: > 100 µM
  TGI: 7.4 µM
Escherichia coli
  MIC: >60 µg
MOLT-4
  GI50: 3.5 µM
  LC50 (concentration killing 50% of cells): > 100 µM
  TGI: > 100 µM
Amorphotheca resinae
  MIC: >60 µg
DU-145
  GI50: 700 nM
  TGI: 2000 nM
DU-145; [2]
  CC50: 4.7 µM
BT-549
  GI50: 1700 nM
  TGI: 4 µM
BT-549; [2]
  CC50: 9.3 µM
SNB-19
  GI50: 2900 nM
  TGI: 11.4 µM
SNB-19; [2]
  CC50: 60 µM
TK-10
  GI50: 3.1 µM
  TGI: 6.8 µM
TK-10; [2]
  CC50: 23.1 µM
MDA-MB-231
  GI50: 2600 nM
  TGI: 14.1 µM
MDA-MB-231; [2]
  CC50: 51.7 µM
M14
  GI50: 200 nM
  LC50 (concentration killing 50% of cells): 4.6 µM
  TGI: 800 nM
EKVX
  GI50: 2100 nM
  TGI: 5.8 µM
EKVX; [2]
  CC50: 23.6 µM
A549
  GI50: 1300 nM
  LC50 (50% cell kill concentration): > 100 µM
  TGI: 5.1 µM
U-251
  GI50: 2200 nM
  TGI: 7.5 µM
U-251; [2]
  CC50: 42.5 µM
SN12C
  GI50: 1700 nM
  LC50: 6.5 µM
  TGI: 3.3 µM
SNB-75
  GI50: 1400 nM
  TGI: 3.9 µM
SNB-75; [2]
  CC50: 56.8 µM
NCI-H23
  GI50: 300 nM
  LC50 (concentration causing 50% net cell kill): 6.1 µM
  TGI: 1000 nM
NCI-H522
  GI50: 1700 nM
  TGI: 3.3 µM
NCI-H522; [2]
  CC50: 6.5 µM
Candida albicans
  MIC: >60 µg
SK-OV-3
  GI50: 6.1 µM
  TGI: 21.9 µM
SK-OV-3; [2]
  CC50: 59.2 µM
ACHN
  GI50: 2300 nM
  TGI: 9.1 µM
ACHN; [2]
  CC50: > 100 µM
OVCAR-5
  GI50: 2000 nM
  TGI: 3.4 µM
OVCAR-5; [2]
  CC50: 5.6 µM
UACC-62
  GI50: 1400 nM
  LC50 (50% cell kill): 6 µM
  TGI: 2900 nM
OVCAR-4
  GI50: 1700 nM
  LC50: 7.6 µM
  TGI: 3.6 µM
SK-MEL-2
  GI50: 1900 nM
  TGI: 3.4 µM
SK-MEL-2; [2]
  CC50: 6.3 µM
NCI/ADR-RES
  GI50: 2100 nM
  TGI: 4.9 µM
NCI/ADR-RES; [2]
  CC50: > 100 µM
786-0
  GI50: 1300 nM
  LC50 (concentration killing 50% of cells): 24.4 µM
  TGI: 4.7 µM
HL-60(TB)
  GI50: 3000 nM
  TGI: > 100 µM
HL-60(TB); [2]
  CC50: > 100 µM
HT-29
  GI50: 1300 nM
  LC50: > 100 µM
  TGI: 7.2 µM
[1]
  MIC: 3.9 µg
HOP-92
  GI50: 2200 nM
  TGI: 4.9 µM
HOP-92; [2]
  CC50: 14.1 µM
MCF7
  GI50: 1500 nM
  TGI: 4.9 µM
MCF7; [2]
  CC50: > 100 µM
A498
  GI50: 900 nM
  TGI: 2200 nM
A498; [2]
  CC50: 5.1 µM
T47D
  GI50: 1800 nM
  TGI: 6.5 µM
T47D; [2]
  CC50: > 100 µM
RXF 393
  GI50: 3.2 µM
  LC50: 46.6 µM
  TGI: 12.3 µM
HCT-116
  GI50: 1100 nM
  LC50: 11.2 µM
  TGI: 2500 nM
OVCAR-8
  GI50: 2200 nM
  TGI: 17.6 µM
OVCAR-8; [2]
  CC50: > 100 µM
MDA-N
  GI50: 200 nM
  TGI: 400 nM
MDA-N; [2]
  CC50: 600 nM
UACC-257
  GI50: 1100 nM
  TGI: 3000 nM
UACC-257; [2]
  CC50: 7.9 µM
HCC 2998
  GI50: 1600 nM
  LC50 (concentration killing 50% of cells): 6 µM
  TGI: 3.1 µM
KM12
  GI50: 1600 nM
  TGI: 3.4 µM
KM12; [2]
  CC50: 7.3 µM
Pseudomonas aeruginosa
  MIC: >60 µg
SF-539
  GI50: 1800 nM
  TGI: 3.6 µM
SF-539; [2]
  CC50: 7.1 µM
CCRF-CEM
  GI50: 50 nM
  TGI: 800 nM
CCRF-CEM; [2]
  CC50: > 100 µM
HOP-62
  GI50: 1700 nM
  TGI: 3.1 µM
HOP-62; [2]
  CC50: 5.6 µM
UO-31
  GI50: 2200 nM
  TGI: 6.1 µM
UO-31; [2]
  CC50: 22.2 µM
